Measurements: the supplement of paper PMC13207355
± gives the standard deviation of the averaged measurements.

Columns and labels:
Conditions in all cases: exposure time: 72 h
[1] = test system: E13 (patient-derived glioblastoma stem cells of classical subtype); assay: surviving fraction (nuclei count normalised to DMSO); higher = more cells surviving (less toxic)
[2] = test system: E21 (patient-derived glioblastoma stem cells of mesenchymal subtype); assay: as above
[3] = test system: E28 (patient-derived glioblastoma stem cells of classical subtype); assay: as above
[4] = test system: E31 (patient-derived glioblastoma stem cells of proneural subtype); assay: as above
[5] = test system: E34 (patient-derived glioblastoma stem cells of proneural subtype); assay: as above
[6] = test system: E57 (patient-derived glioblastoma stem cells of mesenchymal subtype); assay: as above
[7] = test system: FT3469 (normal neural stem cell line); assay: as above
[8] = test system: E13; assay: phenotypic distance (Euclidean, principal components) from DMSO controls (arbitrary units); higher = stronger morphological change
[9] = test system: E21; assay: as above
[10] = test system: E28; assay: as above
[11] = test system: E31; assay: as above
[12] = test system: E34; assay: as above
[13] = test system: E57; assay: as above
[14] = test system: FT3469; assay: as above
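For phenotypic distance (Euclidean, principal components) from DMSO controls in this document: cell Painting imaging in 384-well plates, CellProfiler features reduced to at least 20 principal components, Euclidean distance versus same-plate DMSO vehicle wells (0.1% v/v), median over six images per well.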
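For surviving fraction (nuclei count normalised to DMSO) in this document: nuclei counted by high-content imaging of Hoechst-stained cells in laminin-coated 384-well plates, relative to 0.1% DMSO vehicle wells, with staurosporine as cell-death control.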

O=C(/C=C/c1ccc([N+](=O)[O-])cc1)/C=C1/C(=O)Nc2ccc(F)cc21 [APIO-EE-07]
Conditions | phenotypic distance | surviving fraction
[1], 2.7 nM | – | 0.978 ± 0.23
[1], 8.2 nM | – | 0.955 ± 0.13
[1], 24.7 nM | – | 0.964 ± 0.037
[1], 74.1 nM | – | 1.0673 ± 0.00064
[1], 222.2 nM | – | 0.994 ± 0.06
[1], 666.7 nM | – | 0.9741 ± 0.0051
[1], 2000 nM | – | 0.841 ± 0.09
[2], 2.7 nM | – | 0.996 ± 0.036
[2], 8.2 nM | – | 0.929 ± 0.052
[2], 24.7 nM | – | 1.04 ± 0.019
[2], 74.1 nM | – | 0.991 ± 0.0045
[2], 222.2 nM | – | 0.989 ± 0.067
[2], 666.7 nM | – | 1.03 ± 0.03
[2], 2000 nM | – | 0.642 ± 0.13
[3], 2.7 nM | – | 1.1 ± 0.048
[3], 8.2 nM | – | 0.992
[3], 24.7 nM | – | 1 ± 0.085
[3], 74.1 nM | – | 1.04 ± 0.13
[3], 222.2 nM | – | 0.944 ± 0.04
[3], 666.7 nM | – | 1.054 ± 0.0027
[3], 2000 nM | – | 0.293 ± 0.091
[4], 2.7 nM | – | 0.971 ± 0.026
[4], 8.2 nM | – | 1.07 ± 0.076
[4], 24.7 nM | – | 0.973 ± 0.047
[4], 74.1 nM | – | 0.943 ± 0.18
[4], 222.2 nM | – | 0.958 ± 0.041
[4], 666.7 nM | – | 0.951 ± 0.042
[4], 2000 nM | – | 0.448 ± 0.011
[5], 2.7 nM | – | 0.95 ± 0.023
[5], 8.2 nM | – | 0.991 ± 0.17
[5], 24.7 nM | – | 1 ± 0.015
[5], 74.1 nM | – | 0.971 ± 0.024
[5], 222.2 nM | – | 0.979 ± 0.015
[5], 666.7 nM | – | 0.87 ± 0.045
[5], 2000 nM | – | 0.731 ± 0.13
[6], 2.7 nM | – | 0.99 ± 0.053
[6], 8.2 nM | – | 1.01 ± 0.055
[6], 24.7 nM | – | 1.03 ± 0.037
[6], 74.1 nM | – | 1.04 ± 0.012
[6], 222.2 nM | – | 0.999 ± 0.013
[6], 666.7 nM | – | 1.02 ± 0.033
[6], 2000 nM | – | 0.791 ± 0.17
[7], 2.7 nM | – | 0.932 ± 0.011
[7], 8.2 nM | – | 1.01 ± 0.034
[7], 24.7 nM | – | 1.04 ± 0.18
[7], 74.1 nM | – | 1.09 ± 0.055
[7], 222.2 nM | – | 0.975 ± 0.045
[7], 666.7 nM | – | 0.982 ± 0.02
[7], 2000 nM | – | 0.775 ± 0.014
[8], 2.7 nM | 0.638 ± 0.027 | –
[8], 8.2 nM | 0.674 ± 0.096 | –
[8], 24.7 nM | 0.47 ± 0.16 | –
[8], 74.1 nM | 0.494 ± 0.022 | –
[8], 222.2 nM | 0.491 ± 0.29 | –
[8], 666.7 nM | 0.644 ± 0.16 | –
[8], 2000 nM | 0.888 ± 0.24 | –
[9], 2.7 nM | 0.833 ± 0.17 | –
[9], 8.2 nM | 0.648 ± 0.027 | –
[9], 24.7 nM | 0.526 ± 0.4 | –
[9], 74.1 nM | 2.82 ± 3.1 | –
[9], 222.2 nM | 0.86 ± 0.57 | –
[9], 666.7 nM | 0.927 ± 0.2 | –
[9], 2000 nM | 2.33 ± 0.96 | –
[10], 2.7 nM | 0.693 ± 0.21 | –
[10], 8.2 nM | 0.629 ± 0.25 | –
[10], 24.7 nM | 0.459 ± 0.0068 | –
[10], 74.1 nM | 0.507 ± 0.076 | –
[10], 222.2 nM | 1.59 ± 1.6 | –
[10], 666.7 nM | 0.58 ± 0.064 | –
[10], 2000 nM | 3.56 ± 0.092 | –
[11], 2.7 nM | 0.66 ± 0.099 | –
[11], 8.2 nM | 0.527 ± 0.1 | –
[11], 24.7 nM | 0.585 ± 0.22 | –
[11], 74.1 nM | 0.697 ± 0.057 | –
[11], 222.2 nM | 0.744 ± 0.16 | –
[11], 666.7 nM | 0.876 ± 0.065 | –
[11], 2000 nM | 1.95 ± 0.25 | –
[12], 2.7 nM | 0.787 ± 0.065 | –
[12], 8.2 nM | 0.702 ± 0.28 | –
[12], 24.7 nM | 0.648 ± 0.067 | –
[12], 74.1 nM | 0.775 ± 0.36 | –
[12], 222.2 nM | 0.511 ± 0.098 | –
[12], 666.7 nM | 1.19 ± 0.3 | –
[12], 2000 nM | 1.13 ± 0.095 | –
[13], 2.7 nM | 0.81 ± 0.045 | –
[13], 8.2 nM | 0.581 ± 0.15 | –
[13], 24.7 nM | 0.418 ± 0.012 | –
[13], 74.1 nM | 0.557 ± 0.023 | –
[13], 222.2 nM | 0.584 ± 0.069 | –
[13], 666.7 nM | 0.739 ± 0.13 | –
[13], 2000 nM | 2.46 ± 0.7 | –
[14], 2.7 nM | 0.776 ± 0.027 | –
[14], 8.2 nM | 0.699 ± 0.17 | –
[14], 24.7 nM | 2.24 ± 1.8 | –
[14], 74.1 nM | 1.29 ± 0.23 | –
[14], 222.2 nM | 0.569 ± 0.076 | –
[14], 666.7 nM | 0.6 ± 0.36 | –
[14], 2000 nM | 2.12 ± 1.5 | –
